The results in this text go back to article PMC11947619, “Molecular mechanism of Mad2 conformational conversion promoted by the Mad2‐interaction motif of Cdc20” (Protein Science : A Publication of the Protein Society, 2025).

In the assay the target is T1, O‐Mad2^R133A (Homo sapiens, UniProt Q13257, R133A).
T1 construct: unable to collect equivalent data for full‐length O‐Mad2^R133A; His6-DoubleStrep-TEV (N); made in house
Briefly: Time-resolved NMR: O-Mad2 to C-Mad2 conversion of O-Mad2^R133A with MIM peptides. It counts as biochemical. Conditions: 100 μM O-Mad2^R133A, 25°C. As for the experimental part:
FIGURE 2 NMR fingerprinting of Mad2. (a) Structural orientations of Trp75 (on the αB helix) and Trp167 (on the “safety‐belt”) in Mad2 produce distinct indole NH resonances. […] NMR spectra for O‐Mad2^R133A and “empty” C‐Mad2^L13A/R133A and C‐Mad2^R133A:Cdc20^MIM‐111‐138 are from Fischer et al. ([2022]) (c) Mad2 conversion rates vary with different MIM peptides. Conversion was traced over 24 h at 25°C using the Trp75 and Trp167 side‐chain resonances as reporters. MIM peptides were added at two‐fold molar excess to Mad2 (100 μM). Each spectrum required 12 min of acquisition time, therefore the 15 min time‐points represent the earliest spectra in the time‐resolved series. The schematics show the conformation of Mad2 as indicated by the tryptophan side‐chain resonances. A black tick marks when conversion is considered complete. NMR data for O‐Mad2^R133A with and without Cdc20^MIM‐111‐138 shown are from Fischer et al. ([2022]). In the case of full‐length Cdc20, the MIM sequence is sequestered by an auto‐inhibitory intramolecular interaction within Cdc20 itself, which prevents it from being readily accessible for binding to C‐Mad2 (Piano et al., [2021]). Conversely, isolated MIM peptides lack this auto‐inhibitory mechanism, allowing them to bind directly to C‐Mad2 without obstruction.
To understand whether Mad2 conversion times are modulated by different C‐Mad2 ligands, we used time‐resolved NMR to determine the conversion time of 100 μM O‐Mad2^R133A at 25°C. The indole NH resonances of Trp75 and Trp167 were used as reporters (Figure 2b). […] In contrast, conversion took ~24 h in the absence of Cdc20^MIM‐111‐138 peptide (Fischer et al., [2022]) (Figures 2c and S4b). […] Other MIM peptides also accelerated the O‐Mad2 to C‐Mad2 conversion. […] In “empty” C‐Mad2, the β7/β8 hairpin is displaced to expose the β6 strand for pairing with the MIM peptide (Luo et al., [2004]) (Figure S3a).
Mad2 constructs were expressed in BL21 Star (DE3) cells (Thermo Fisher Scientific), co‐transformed with a pRARE plasmid (Merck). Uniformly labeled proteins were expressed in M9 minimal media (6 g/L Na2HPO4, 3 g/L KH2PO4, 0.5 g/L NaCl) supplemented with 1.7 g/L yeast nitrogen base without NH4Cl and amino acids (Sigma Y1251). 1 g/L ^15NH4Cl and 4 g/L glucose were supplemented for ^15N labeling. For ^13C/^15N double‐labeled samples, unlabeled glucose was replaced with 3 g/L ^13C‐glucose. Protein expression was induced with 0.4 mM IPTG at 16°C overnight. All samples were purified as previously described (Luo & Yu, [2005]; Mapelli et al., [2007]) and all O‐Mad2 variants were kept at 4°C during purification to prevent conversion to C‐Mad2. Prior to all NMR experiments, proteins were dialyzed into 20 mM HEPES, pH 7.0, 100 mM NaCl, 1 mM TCEP. ^13C/^15N‐labeled samples were used for backbone assignment, and all other experimental data were acquired on ^15N‐labeled samples. Proteins were kept on ice before NMR experiments to ensure all O‐Mad2 remained in the open state. For “bound” C‐Mad2, MIM peptides were added in 1:2 molar excess to ensure complete conversion.
All peptides were synthesized by Cambridge Research Biochemicals, UK. Peptides were dialyzed into 20 mM HEPES, pH 7.0, 100 mM NaCl, and 1 mM TCEP for NMR experiments. The sequences for the peptides used in this study are: Cdc20^MIM‐111‐138 ([…]), Cdc20^MIM‐123‐137 (FDVEEAKILRLSGKP), Cdc20^MIM‐123‐152 ([…]), Cdc20^MIM‐138‐152 (QNAPEGYQNRLKVLY), Mad1^MIM‐529‐550 ([…]), and MBP1^MIM (SWYSYPPPQRAV). […]

Residues, ends and D or L forms follow the SMILES beside them.

T1 sequence (Q13257 whole entry R133A): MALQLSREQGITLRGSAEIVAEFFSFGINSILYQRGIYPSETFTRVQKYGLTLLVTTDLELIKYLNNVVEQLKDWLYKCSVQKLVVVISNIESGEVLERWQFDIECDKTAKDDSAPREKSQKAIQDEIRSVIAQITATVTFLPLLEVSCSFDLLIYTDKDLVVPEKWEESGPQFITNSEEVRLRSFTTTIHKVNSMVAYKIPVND

`CC[C@H](C)[C@H](NC(=O)[C@H](CCCCN)NC(=O)[C@H](C)NC(=O)[C@H](CCC(=O)O)NC(=O)[C@H](CCC(=O)O)NC(=O)[C@@H](NC(=O)[C@H](CC(=O)O)NC(=O)[C@@H](N)Cc1ccccc1)C(C)C)C(=O)N[C@@H](CC(C)C)C(=O)N[C@@H](CCCNC(=N)N)C(=O)N[C@@H](CC(C)C)C(=O)N[C@@H](CO)C(=O)NCC(=O)N[C@@H](CCCCN)C(=O)N1CCC[C@H]1C(=O)N[C@@H](CCC(N)=O)C(=O)N[C@@H](CC(N)=O)C(=O)N[C@@H](C)C(=O)N1CCC[C@H]1C(=O)N[C@@H](CCC(=O)O)C(=O)NCC(=O)N[C@@H](Cc1ccc(O)cc1)C(=O)N[C@@H](CCC(N)=O)C(=O)N[C@@H](CC(N)=O)C(=O)N[C@@H](CCCNC(=N)N)C(=O)N[C@@H](CC(C)C)C(=O)N[C@@H](CCCCN)C(=O)N[C@H](C(=O)N[C@@H](CC(C)C)C(=O)N[C@@H](Cc1ccc(O)cc1)C(=O)O)C(C)C` [Cdc20^MIM‐123‐152] (H-FDVEEAKILRLSGKPQNAPEGYQNRLKVLY-OH; N-terminus and C-terminus assumed): under “time-resolved NMR, compared with other Cdc20^MIM peptides”, the “Mad2 conversion rate/efficiency, in words” value was “more efficient at triggering Mad2 conversion”.
Regarding “EHQKAWALNLNGFDVEEAKILRLSGKPQ [Cdc20^MIM‐111‐138, Cdc20^MIM peptide spanning Cdc20 residues 111–138]”, for the setting “two-fold molar excess peptide, without peptide ~24 h”, the “acceleration of O-Mad2 to C-Mad2 conversion vs absence of MIM peptide” value is reported as about 50 fold.
Turning to “QNAPEGYQNRLKVLY [Cdc20^MIM‐138‐152, peptide of Cdc20 residues 138–152]”, the “induction of Mad2 conversion after two hours / binding, in words” value (time-resolved NMR, two hours) was “failed to induce Mad2 conversion after two hours, and therefore alone are insufficient to bind Mad2”.
